Measurements taken from publication PMC10785772 (Science translational medicine, 2023).
≈ marks a conversion by molar mass, not a printed value. Where two headings read alike, the source gives them in different places.

Tested on: E. coli strain NDM-1 (ATCC:BAA-2471)
Experiment: MIC against multidrug-resistant sepsis-model strain
Type: cell-based

Molecule | MIC (Escherichia coli, BAA2471) | MIC
C[C@@H](O)[C@H]1C(=O)N2C(C(=O)O)=C(SCCN=CN)C[C@H]12 [imipenem] | 32 µg/mL (≈ 107 µM) | 
colistin |  | 2.5 µg/mL
O=C(O)c1cn(C2CC2)c2cc(N3CCNCC3)c(F)cc2c1=O [ciprofloxacin] | > 32 µg/mL | 
